Read-outs that look alike come from different tables or passages of the source.
Assays:
THP-1 cells = experiment: resazurin viability assay in THP-1 cells; format: cell-based, human; settings: * mild, ** marked reduction in viability, in % (unit assumed)
Method: The ability to inhibit TNF-α production was analyzed in THP-1 cells, a human acute monocytic leukemia cell line that is widely used to assess monocyte functions. In order to induce maturation, THP-1 cells were plated at 1×10^6 cells/ml and pretreated with 5 nM PMA for two days. Differentiated THP-1 cells were pretreated with various concentrations of TTL3 or its analogs for 1 hour, followed by a 4 hour incubation with 1 μg of LPS (Sigma, St. Louse, Mo.). The p38 inhibitor (SB 203580; Sigma, St. Louis, Mo.) was used as a positive control. Supernatants were collected and stored at −80° C. until assayed for TNF-α activity. A resazurin assay was performed for each analog to evaluate the effects on cell metabolism and viability.
A preparation of the dye resazurin, commercially-available as alamarBlue™ (Biosource International Inc., 820 Flynn Road, Camarillo, Calif.), was used for the cytotoxicity assays described herein. The assays and experiments described herein were conducted in substantially the same manner as described in the scientific literature, for example, in Magnani, E. and Bettini, E., “Resazurin detection of energy metabolism changes in serum-starved PC12 cells and of neuroprotective agent effect,” Brain Res Protoc., 2000 July; 5(3):266-72 and in Nociari M. M., Shalev A., Benias P., and Russo C. J, “A novel one-step, highly sensitive fluorometric assay to evaluate cell-mediated cytotoxicity,” Immunol. Methods 213, 157-167 (1998), see also U.S. Pat. No. 5,501,959, entitled “Antibiotic and Cytotoxic Drug Susceptibility Assays using Resazurin and Poising Agents,” the entire specification of which is incorporated herein by reference.

MDA-MB-231 (Breast) = experiment: 48 hr cytotoxicity, MDA-MB-231; format: cell-based, human
Method: B16-F10 (ATCC; CRL-6475), DU 145 (ATCC; HTB-81), HEK293 (ATCC; CRL-1573), HT-29 (ATCC; HTB-38), LoVo (ATCC; CCL-229), MDA-MB-231 (ATCC; HTB-26), MIA PaCa-2 (ATCC; CRL-1420), NCI-H292 (ATCC; CRL-1848), OVCAR-3 (ATCC, HTB-161), PANC-1 (ATCC; CRL-1469), PC-3 (ATCC; CRL-1435), RPMI 8226 (ATCC; CCL-155) and U266 (ATCC; TIB-196) are maintained in appropriate culture media. The cells are cultured in an incubator at 37° C. in 5% CO2 and 95% humidified air.
For cell growth inhibition assays, B16-F10, DU 145, HEK293, HT-29, LoVo, MDA-MB-231, MIA PaCa-2, NCI-H292, OVCAR-3, PANC-1, PC-3, RPMI 8226 and U266 cells are seeded at 1.25×10^3, 5×10^3, 1.5×10^4, 5×10^3, 5×10^3, 1×10^4, 2×10^3, 4×10^3, 1×10^4, 7.5×10^3, 5×10^3, 2×10^4, 2.5×10^4 cells/well respectively in 90 μl complete media into Corning 3904 black-walled, clear-bottom tissue culture plates. 20 mM stock solutions of compounds of Formula II, IIA, and IIB are prepared in 100% DMSO, aliquoted and stored at −80° C. Compounds of Formula II, IIA, and IIB are serially diluted and added in triplicate to the test wells resulting in final concentrations ranging from of 20 μM to 0.2 pM. […]
Following 48 hours of drug exposure, 10 μl of 0.2 mg/ml resazurin (obtained from Sigma-Aldrich Chemical Co.) in Mg^2+, Ca^2+ free phosphate buffered saline is added to each well and the plates are returned to the incubator for 3-6 hours. Since living cells metabolize Resazurin, the fluorescence of the reduction product of Resazurin is measured using a Fusion microplate fluorometer (Packard Bioscience) with λex=535 nm and λem=590 nm filters. […]
The cytotoxicity assays were performed by seeding individual cell lines at appropriate density in the 96 well flat-bottomed plates and allowed to attach for 24 hours at 37° C., 5% CO2 and 95% humidified air (RPMI 8226 and U266 cells were plated in 96 well plates on the day of compound addition). […] Cell viability was assessed 48 hours later by measuring the fluorescence of the reduction product of Resazurin by a Fusion microplate fluorometer (PerkinElmer) with λex=535 nm and λem=590 nm filters. […]

[1] = tested on: CCD-27sk (human normal skin fibroblast); experiment: 48 hr cytotoxicity, CCD-27sk; format: cell-based; settings: 48 hr drug exposure
Method: Human colon adenocarcinoma HT-29 (ATCC# HTB-38), prostate adenocarcinoma PC-3 (ATCC# CRL-1435), breast adenocarcinoma MDA-MB231 (ATCC# HTB-26), Multiple Myeloma RPMI 8226 (ATCC# CCL-155) and U266 (ATCC # TIB-196) cell lines and human normal fibroblast CCD-27sk (ATCC# CRL-1475) were all purchased from ATCC (Manassas, Va.). The cells were maintained in their respective ATCC recommended culture media at 37° C., 5% CO2 and 95% humidified air.
The cytotoxicity assays were performed by seeding individual cell lines at appropriate density in the 96 well flat-bottomed plates and allowed to attach for 24 hours at 37° C., 5% CO2 and 95% humidified air (RPMI 8226 and U266 cells were plated in 96 well plates on the day of compound addition). Serially diluted NPI-1387 was added in triplicate to cells at concentrations ranging from 160 nM to 20 μM. Final concentration of 0.25% (v/v) DMSO was used as the vehicle control. Cell viability was assessed 48 hours later by measuring the fluorescence of the reduction product of Resazurin by a Fusion microplate fluorometer (PerkinElmer) with λex=535 nm and λem=590 nm filters. The IC50 values (the drug concentration at which 50% of the maximal observed cytotoxicity is established) were calculated in XLFit 3.0 or XLFit 4.0 (ID Business Solutions Ltd) using a sigmoidal dose response model.

[2] = tested on: bone marrow stromal cells (BMSCs); experiment: viability of MM patient-derived bone marrow stromal cells (BMSCs); format: cell-based
From the text: Besides nuclear condensation, NF-KB inhibitor triggered proteolytic cleavage of poly (ADP ribose) polymerase (PARP), a hallmark of apoptosis.

[3] = tested on: MM cells with IL-6 or IGF-1; experiment: protective effects of MM bone marrow microenvironment; format: cell-based

SMILES | Effect on Cell Viability (THP-1 cells; 100 ng/ml) | Effect on Cell Viability (THP-1 cells; 1 ug/ml) | Effect on Cell Viability (THP-1 cells; 10 ug/ml) | IC50 (MDA-MB-231 (Breast)) [µM] | IC50 (MDA-MB-231 (Breast); Homo sapiens, MDA-MB-231, 48 h) [µM] | IC50 [1] [µM] | viability of bone marrow stromal (stem) cells [2] | viability of bone marrow stromal (stem) cells ([2]; listed as NF-KB inhibitor) | protective effects of IL-6 or IGF-1 [3]
C=C[C@@]1(C)CCC=C2[C@H]1CC[C@@H]1[C@](C)(C(=O)OC)CCC[C@@]21C [TTL3] | 100 | 100 | 100 |  |  |  |  |  | 
C=CC(=O)C1(C)CCCC2(C)C3=CCC(C)(C=C)C[C@@H]3CC[C@H]12 (stereo in doubt) [NPI-1387, 1-[(1S,4aS,7R)-1,4a,7-Trimethyl-7-vinyl-1,2,3,4,4a,6,7,8,8a,9,10,10a-dodecahydro-1-phenanthrenyl]-2-propen-1-one] |  |  |  | 15 ± 4 | 18 ± 2 | ≥ 20 | does not affect the viability of bone marrow stem cells | does not affect the viability | does overcome the protective effects of IL-6 or IGF-1
C=C[C@@]1(C)CCC=C2[C@H]1CC[C@@H]1[C@](C)(C(=O)N3CCOCC3)CCC[C@@]21C [LT-1-85] | 100 | 100 | 80* |  |  |  |  |  | 
